Laboratory results published in US20040220268A1, “Compound that directly stimulates phospholipase C activity” (priority 2003, published 2004).

Legend:
[1] = target: PLC β2 (Homo sapiens, UniProt Q00722); experiment: Phosphoinositide hydrolysis in vitro; format: biochemical
Description: (§1) The hydrolyzing activity of PtdIns-4,5-P2 was measured on mixed phospholipid vesicles containing 120 μM phosphatidylethanolamine, 30 μM PtdIns-4,5-P2, and 1 μCi/ml [3H] PtdIns-4,5-P2. Purified PLC β2, substrates, and the chemicals (2.5, 5, 10, 20, and 25 μM of m-3M3FBS or of o-3M3FBS) were coincubated (A), 25 μM of m-3M3FBS or o-3M3FBS, and phospholipid substrates were mixed with purified PLC β3, γ1, 2, or δ1 (B). Reactions were performed for 10 min at 37° C. in a 200 μl reaction mixture containing lipid micelles (5 μM [^3H] PtdIns-4,5-P2, 20,000 cpm). Reactions were stopped by adding 1 ml of CHCl3:CH3OH:HCl (50:50:0.3, v/v/v). Inositol trisphosphates were extracted with 0.5 ml of 1 M HCl/5 mM EGTA, and the radioactivity in the upper aqueous phase was measured. Data are presented as means ±S. E. M. of three independent experiments (A, B).
(§2) PLC activity was assayed using [^3H] PtdIns-4,5-P2 as a substrate (Min et al., 1993). PtdIns-4,5-P2-hydrolyzing activity was measured with mixed phospholipid micelles containing 120 μM phosphatidylethanolamine, 30 μM PtdIns-4,5-P2, and 1 μCi/ml [^3H] PtdIns-4,5-P2. The lipids, in chloroform, were dried under a stream of nitrogen gas, suspended in assay buffer (20 mM HEPES pH 7.0, 120 mM NaCl, 2 mM MgCl2, 40 or 100 μM CaCl2, and 1 mg/ml bovine albumin serum (Bayer, Leverkusen, Germany)), and sonicated. All proteins added to the reaction mixture were dialyzed overnight against the assay buffer. Incubation was performed for 10 min at 37° C. in a 200 μl reaction mixture containing lipid micelles (5 μM [3H] PtdIns-4,5-P2, 20,000 cpm). The reaction was stopped by adding 2 ml of CHCl3: CH3OH: HCl (50: 50: 0.3, v/v/v). The inositol triphosphates were extracted with 0.5 ml of 1 N HCl, and radioactivities in the upper aqueous phase were measured.

[2] = target: T1, PLC γ1 (Homo sapiens, UniProt P19174); experiment: Phosphoinositide hydrolysis in vitro; format: biochemical; settings: 25 μM; purified isozyme
T1 sequence (P19174 1-1290): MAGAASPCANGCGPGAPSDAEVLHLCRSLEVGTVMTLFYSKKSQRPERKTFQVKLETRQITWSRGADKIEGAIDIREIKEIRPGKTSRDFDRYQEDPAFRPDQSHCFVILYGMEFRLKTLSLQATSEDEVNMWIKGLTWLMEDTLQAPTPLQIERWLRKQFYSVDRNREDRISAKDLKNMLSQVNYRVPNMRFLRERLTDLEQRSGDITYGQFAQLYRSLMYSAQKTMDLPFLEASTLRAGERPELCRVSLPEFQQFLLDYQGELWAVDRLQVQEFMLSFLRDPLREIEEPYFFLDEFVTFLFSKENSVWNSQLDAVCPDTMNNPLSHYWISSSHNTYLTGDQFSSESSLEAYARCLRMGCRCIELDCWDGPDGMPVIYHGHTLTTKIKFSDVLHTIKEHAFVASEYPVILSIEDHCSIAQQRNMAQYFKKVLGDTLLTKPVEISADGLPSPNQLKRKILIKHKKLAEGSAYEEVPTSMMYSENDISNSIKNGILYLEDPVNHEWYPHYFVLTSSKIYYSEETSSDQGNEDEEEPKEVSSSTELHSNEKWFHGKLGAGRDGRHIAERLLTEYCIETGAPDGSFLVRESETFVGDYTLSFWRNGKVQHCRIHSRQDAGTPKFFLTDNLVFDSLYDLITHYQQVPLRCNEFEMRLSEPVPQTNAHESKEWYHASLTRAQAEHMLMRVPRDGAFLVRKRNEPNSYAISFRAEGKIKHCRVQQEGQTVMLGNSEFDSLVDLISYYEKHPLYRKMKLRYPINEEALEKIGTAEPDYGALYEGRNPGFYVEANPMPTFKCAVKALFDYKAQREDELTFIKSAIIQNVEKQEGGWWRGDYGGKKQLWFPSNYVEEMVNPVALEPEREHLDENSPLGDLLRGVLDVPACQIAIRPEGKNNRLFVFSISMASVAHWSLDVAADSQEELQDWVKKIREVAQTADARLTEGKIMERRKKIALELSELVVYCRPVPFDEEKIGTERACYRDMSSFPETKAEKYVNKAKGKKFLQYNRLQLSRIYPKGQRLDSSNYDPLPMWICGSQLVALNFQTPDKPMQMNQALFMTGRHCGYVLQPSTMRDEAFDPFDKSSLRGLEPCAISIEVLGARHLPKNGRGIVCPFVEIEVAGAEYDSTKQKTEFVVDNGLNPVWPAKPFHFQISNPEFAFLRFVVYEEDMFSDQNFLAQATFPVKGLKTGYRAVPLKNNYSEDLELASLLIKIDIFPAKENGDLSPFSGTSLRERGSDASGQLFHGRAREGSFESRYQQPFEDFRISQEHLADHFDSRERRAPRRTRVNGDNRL
Description: as §1, §2

Chain of PLC β2 (Q00722 whole entry, species assumed): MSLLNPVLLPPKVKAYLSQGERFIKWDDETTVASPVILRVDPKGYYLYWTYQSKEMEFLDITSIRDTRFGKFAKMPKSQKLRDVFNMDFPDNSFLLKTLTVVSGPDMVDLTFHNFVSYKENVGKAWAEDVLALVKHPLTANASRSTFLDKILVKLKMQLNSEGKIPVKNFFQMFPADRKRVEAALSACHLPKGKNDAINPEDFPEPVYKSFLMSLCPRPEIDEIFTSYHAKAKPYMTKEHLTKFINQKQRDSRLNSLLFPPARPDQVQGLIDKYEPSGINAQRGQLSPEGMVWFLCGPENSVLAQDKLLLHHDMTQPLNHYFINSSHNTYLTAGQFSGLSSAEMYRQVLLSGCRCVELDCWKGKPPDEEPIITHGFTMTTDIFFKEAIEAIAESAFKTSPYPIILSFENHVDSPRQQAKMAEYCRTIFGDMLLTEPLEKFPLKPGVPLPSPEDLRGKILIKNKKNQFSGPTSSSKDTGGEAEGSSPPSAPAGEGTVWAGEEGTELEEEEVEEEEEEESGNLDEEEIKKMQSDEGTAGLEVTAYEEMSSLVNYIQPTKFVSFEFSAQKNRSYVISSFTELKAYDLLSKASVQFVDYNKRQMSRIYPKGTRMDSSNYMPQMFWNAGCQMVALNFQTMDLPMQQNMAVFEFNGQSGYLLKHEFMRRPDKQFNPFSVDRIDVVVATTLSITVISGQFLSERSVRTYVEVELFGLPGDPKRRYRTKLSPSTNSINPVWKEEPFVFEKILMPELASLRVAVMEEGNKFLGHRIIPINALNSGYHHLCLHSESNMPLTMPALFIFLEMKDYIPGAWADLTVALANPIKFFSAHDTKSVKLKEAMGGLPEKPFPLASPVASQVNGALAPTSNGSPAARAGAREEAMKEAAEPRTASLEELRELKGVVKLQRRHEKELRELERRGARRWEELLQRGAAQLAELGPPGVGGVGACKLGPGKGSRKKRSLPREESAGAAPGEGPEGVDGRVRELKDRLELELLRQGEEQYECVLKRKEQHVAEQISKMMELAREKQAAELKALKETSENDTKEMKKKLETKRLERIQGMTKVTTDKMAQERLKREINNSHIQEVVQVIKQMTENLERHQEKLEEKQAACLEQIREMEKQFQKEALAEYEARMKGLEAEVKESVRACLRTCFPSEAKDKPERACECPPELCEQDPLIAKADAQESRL

Cc1cc(C)c(S(=O)(=O)Nc2cccc(C(F)(F)F)c2)c(C)c1 [m-3M3FBS, 2,4,6-Trimethyl-N-(meta 3-trifluoromethyl-phenyl)-benzenesulfonamide]
in vitro PLCβ2 activity ([1]; [3H] PtdIns as substrate, data not shown): significantly increased | concentration at which PIP2-hydrolyzing activity of PLC β2 was enhanced ([1]; [3H] PtdIns-4,5-P2 substrate): exceeding 10 μM | effect on PIP2-hydrolyzing activity of PLC β2 ([1]; low doses (ca., 2.5 and 5 μM), [3H] PtdIns-4,5-P2 substrate): no effect | activity of PLC gamma1 [2]: augmented the activity

Cc1cc(C)c(S(=O)(=O)Nc2ccccc2C(F)(F)F)c(C)c1 [o-3M3FBS, 2,4,6-Trimethyl-N-(ortho 3-trifluoromethyl-phenyl)-benzenesulfonamide, reference compound]
effect on PIP2-hydrolyzing activity of PLC β2 ([1]; at 10 μM or higher concentrations (up to 25 μM)): no effect | activity of PLC gamma1 [2]: did not affect
